Laboratory results: patent publication US10745719B2, “Enzymes and methods for dealkylation of substrates” (Alliance for Sustainable Energy, LLC, priority 2015, dated 2020)

Assays:
[1] = test system: P. putida KT2440/pCJ021; assay: Growth on and metabolism of aromatic substrate by P. putida KT2440/pCJ021 (cytochrome P450 O-dealkylase and reductase) in M9 minimal medium; format: cell-based, Pseudomonas putida
Source text: (§1) The genes encoding the cytochrome P450 protein and the co-transcribed reductase were amplified from Amycolatopsis sp. ATCC 39116 DNA using primers oCJ169 and oCJ170 (see Table 2) and the product assembled using Gibson Assembly Master Mix (New England BioLabs) into the broad host-range vector pBTL-2, which was amplified using primers oCJ160 and oCJ161, resulting in pCJ021. pBTL-2 (a gift from Ryan Gill; Addgene plasmid #22806) is a broad host-range vector that drives expression of inserted genes using the lac promoter, which is constitutively expressed in Pseudomonas putida KT2440. The cytochrome P450 gene alone was also amplified using oCJ169 and oCJ206 and assembled it into the same vector (resulting in pCJ024). pCJ021 was then transformed into P. putida KT2440 to generate P. putida KT2440/pCJ021.
HPLC analysis was performed by injecting 6 μL of 0.2 μm filtered culture supernatant onto an Agilent 1100 series system equipped with a Phenomenex Rezex RFQ-Fast Acid H+ (8%) column and a cation H+ guard cartridge (Bio-Rad Laboratories) at 85° C. run using a mobile phase of 0.01 N sulfuric acid at a flow rate of 1.0 mL/min and a diode array detector to measure absorbance at 210 nm. Analytes were identified by comparing retention times and spectral profiles with pure standards. HPLC chromatograms show milli-absorbance units (mAU) on the Y axis and retention time (minutes) on the X axis.
(§2) P. putida KT2440 can readily metabolize catechol for growth, so a functional enzyme with O-dealkylase activity would convert guaiacol or guaethol to catechol and enable this organism to metabolize guaiacol or guaethol for growth, which it is not natively capable of.
HPLC analyses show the disappearance of guaiacol in a culture of P. putida KT2440/pCJ021 grown on M9 minimal medium containing guaiacol and the lack of guaiacol catabolism by native P. putida KT2440 (FIG. 6).

[2] = test system: P. putida KT2440 transformed with pCJ024; assay: Metabolism of guaiacol by P. putida KT2440 transformed with pCJ024 (cytochrome P450 gene alone); format: cell-based, Pseudomonas putida; conditions: M9 minimal medium, 5 mM guaiacol
Source text: as §1, §2

[3] = 5 mM guaiacol as sole source of carbon and energy

Row | SMILES | metabolism of substrate ([1]; 5 mM guaethol as sole source of carbon and energy, 72 hours) | OD600 reached ([1]; 5 mM guaethol, growth on the catechol produced) | OD600 reached [1, 3] | metabolism of substrate [1, 3] | metabolism of substrate [2]
1 | CCOc1ccccc1O [guaethol, 2-ethoxyphenol] | able to metabolize the guaethol | 7 | – | – | –
2 | COc1ccccc1O [guaiacol, 2-methoxyphenol] | – | – | over 0.5 | metabolizing the guaiacol completely | neither of these strains was able to metabolize guaiacol
